Results: article PMC467046, “Computational and spectroscopic insight into the binding of citral with human transferrin: Targeting neurodegenerative diseases” (Heliyon, 2024)

Target: T1, human transferrin (htf) (Homo sapiens, UniProt P02787)
T1 construct: gene TF; single-chain glycoprotein of 679 amino acids (mature)
Experiment: intrinsic fluorescence quenching, modified Stern-Volmer plot
Format: binding
Settings: 298 K; 4 uM htf, 0-8 uM citral; excitation 280 nm; double-log
Excerpt: intrinsic fluorescence quenching, modified Stern-Volmer plot on human transferrin (htf)

T1 sequence (P02787 20-698): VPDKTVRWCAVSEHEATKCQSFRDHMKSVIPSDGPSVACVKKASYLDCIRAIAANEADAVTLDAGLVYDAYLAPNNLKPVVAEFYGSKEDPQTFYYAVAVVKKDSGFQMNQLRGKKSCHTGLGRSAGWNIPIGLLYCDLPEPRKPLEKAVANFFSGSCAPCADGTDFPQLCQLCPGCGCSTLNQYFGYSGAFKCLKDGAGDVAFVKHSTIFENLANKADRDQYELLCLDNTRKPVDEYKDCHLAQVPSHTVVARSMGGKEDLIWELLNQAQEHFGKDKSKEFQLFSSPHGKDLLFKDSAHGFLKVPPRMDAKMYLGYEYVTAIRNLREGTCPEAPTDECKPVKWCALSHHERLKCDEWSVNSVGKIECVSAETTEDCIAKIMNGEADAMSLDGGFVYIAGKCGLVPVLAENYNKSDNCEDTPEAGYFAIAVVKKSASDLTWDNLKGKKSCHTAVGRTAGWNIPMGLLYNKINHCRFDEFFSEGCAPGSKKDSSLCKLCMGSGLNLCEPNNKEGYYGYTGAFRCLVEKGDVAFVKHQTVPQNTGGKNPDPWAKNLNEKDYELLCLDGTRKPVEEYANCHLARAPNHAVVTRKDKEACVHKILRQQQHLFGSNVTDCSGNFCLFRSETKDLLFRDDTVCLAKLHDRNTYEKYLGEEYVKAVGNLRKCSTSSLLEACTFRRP

For `CC(C)=CCCC(C)=CC=O` [citral], the “K 10^6M^-1” value was 0.82 10^6 M^-1.
